Tests used:
[1] = test system: DNA oligomer containing the G-quadruplex forming region of the c-Myc promoter; assay: FRET assay with c-Myc G-quadruplex oligomer (ED35); format: binding; conditions: concentration of ligand that decreases relative fluorescence of DNA FRET probe (1 μM) by 35%
Protocol: All synthesized ligands are examined with a DNA oligomer containing the G-quadruplex forming region of the c-Myc promoter (d[[…]]). The oligomer is tagged with a 5′-FAM fluorophore and a 3′-Black Hole Quencher molecule. 1 μM oligomer is linearized by heating at 95° C. for 5 minutes in a 50 mM Tris-Acetate buffer (pH 7.1) and slowly cooled back to room temperature, allowing formation of a G-quadruplex. Ligand is added to the oligomer probe at various concentrations spanning a 2-3 log range (high dose of 10 μM), allowed to incubate for 15 minutes in the dark and fluorescence is read on the BioTek Synergy HT spectrophotometer (Biotek, Winooski, VT). Drug autofluorescence is subtracted, data is normalized to oligomer only, and ED35s are calculated from data fit by a sigmoidal top-to-bottom nonlinear regression. ED35s<10 μM are further analyzed by circular dichroism (CD).
Experimental values for compounds tested according to one or more of the preceding examples are reported in the following table, including, ED35 is the concentration of ligand that decreases the relative fluorescence of a DNA FRET probe (1 μM) by 35% (identified as the threshold to minimize false negatives). ED35 values are reported in ranges: A: >10 μM; B: ≤10 μM.

PDGF-Rβ G-quadruplex = assay: Competition dialysis, ligand bound to G-quadruplex; format: binding; conditions: 2 μM of compound
Protocol: (§1) Following the competition dialysis assay method of the Chaires group (Ragazzon et al., Methods 2007, 42, 173-182, which is hereby incorporated by reference in its entirety) using 2 μM of the referenced compound, the concentration of ligand bound to G-quadruplex structure for a variety of target genes were determined.

MYC G-quadruplex = assay: Competition dialysis, ligand bound to G-quadruplex; format: binding; conditions: 2 μM of compound
Protocol: as §1

HIF-1α G-quadruplex = assay: Competition dialysis, ligand bound to G-quadruplex; format: binding; conditions: 2 μM of compound
Protocol: as §1

PDGFA G-quadruplex = assay: Competition dialysis, ligand bound to G-quadruplex; format: binding; conditions: 2 μM of compound
Protocol: as §1

Bcl-2 G-quadruplex = assay: Competition dialysis, ligand bound to G-quadruplex; format: binding; conditions: 2 μM of compound
Protocol: as §1

VEGF G-quadruplex = assay: Competition dialysis, ligand bound to G-quadruplex; format: binding; conditions: 2 μM of compound
Protocol: as §1

Telomeric G-quadruplex = assay: Competition dialysis, ligand bound to G-quadruplex; format: binding; conditions: 2 μM of compound
Protocol: as §1

hTERT G-quadruplex = assay: Competition dialysis, ligand bound to G-quadruplex; format: binding; conditions: 2 μM of compound
Protocol: as §1

[2] = test system: c-Myc oligomer (parallel G-quadruplex); assay: Circular dichroism melting (ΔTm) with 1 equivalent of ligand; format: binding; conditions: increase in melting temperature with 1 equivalent of ligand (DNA:Ligand=1:1)
Protocol: Non-labeled oligomers were prepared as described for FRET (Example VII). Ligands interacting with the c-Myc FRET oligomer are further examined for DNA secondary structure stabilization by CD (Sun et al., 2005). Briefly, the CD absorption spectra at 262 nm (parallel G-quadruplex) with increasing temperatures (4-95° C.) is examined in the absence and presence of 1 equivalence of ligand. TM is calculated by GraphPad Prizm using a top-to-bottom nonlinear fit, and ΔTM are calculated for each ligands.

AR mRNA = AR mRNA expression by RT-qPCR; format: cell-based; conditions: 10 μM; for AR mRNA: LNCaP and C4-2 cells, 12 and 24 hours
Protocol: (§2) This example provides specific compounds of the present invention suppress AR protein expression in androgen-dependent (LNCaP) and CRPC tumor cells ([…]) after a 24 h treatment at 10 μM (FIG. 1A) (Cell lysates from LNCaP and C4-2 cells treated with GSA compounds at a concentration of 10 μM for 24 hours were analyzed for expression of AR, NCL, and GAPDH by immunoblotting). GSA0932 suppress AR expression in 22RV1 and VCaP tumor cells, after 24 h of treatment reaching its maximal inhibitory activity at a concentration of 3 and 5 μM respectively (FIG. 1B) (Cell lysates from indicated prostate cancer cell lines treated with increasing concentrations GSA0932 for 24 hours were analyzed for AR, NCL, and GAPDH by immunoblotting). […] Values are means±s.e.m; p<0.05 (*); n=3).
(§3) To measure the dependency of GSA0932-mediated AR suppression on the AR G4-element, we generated a stable LNCaP cell lines expressing a dual reporter in which Gaussia luciferase is driven by either a wild type or a mutant AR promoter lacking the G4 element, and secreted alkaline phosphatase (SEAP) is driven by a constitutive promoter. […] However, GSA0932 had no effect on the G4-deleted AR reporter (FIG. 1E). […] Knocking down NCL expression alleviated the GSA0932 inhibitory activity against AR mRNA expression compared with control cells (FIG. 1G) (LNCaP cells were transfected with scrambled (Scr) or NCL siRNAs and […] post-transfection, cells were treated with DMSO, 10 μM GSA0932, or […] GSA1502 for 12 hours. Extracted RNA was analyzed for AR expression by RT-qPCR).

AR = AR protein expression by immunoblotting in prostate cancer cells; format: cell-based; conditions: for concentration of maximal inhibitory activity on AR expression: 24 h of treatment
Protocol: as §2

ARv7 splice variant = ARv7 splice variant expression by immunoblotting in 22RV1; format: cell-based; conditions: 22RV1 cells, 24 h
Protocol: as §2

G4-deleted AR reporter = assay: Dual reporter, Gaussia luciferase driven by mutant AR promoter lacking the G4 element, in LNCaP; format: cell-based; conditions: LNCaP stable cells, 10 μM, 12 hours
From the text: as §3

[3] = test system: wild type AR promoter (AR G4) reporter; assay: Dual reporter, Gaussia luciferase driven by wild type AR promoter, in LNCaP; format: cell-based; conditions: LNCaP stable cells, 10 μM, 12 hours
From the text: as §3

[4] = test system: AR-positive tumor cells versus non-AR expressing cells; assay: Cytotoxic activity across prostate cell lines by MTT; format: cell-based; conditions: 48 h
From the text: (§4) Table V provides the IC50 values for GSA0932.

KLK3, also known as PSA = assay: mRNA expression of AR target gene by RT-qPCR; format: cell-based; conditions: 12 hours; 10 μM (LNCaP, C4-2), 5 μM (VCaP), 3 μM (22RV1)
[5] = test system: NCL bound to the G4-element of the AR promoter; assay: ChIP of NCL on AR G4; format: cell-based; conditions: LNCaP and C4-2 cells, 10 μM
PC3 cells = assay: Cell viability by MTT, 48 h; format: cell-based; conditions: Homo sapiens, PC-3, PC3, 48 h
From the text: as §4

[6] = test system: RWPE non-malignant prostate cells; assay: Cell viability by MTT, 48 h; format: cell-based
From the text: as §4

22Rv1 cells = assay: Cell viability by MTT, 48 h; format: cell-based; conditions: Homo sapiens, 22Rv1, 48 h
From the text: as §4

VCaP cells = assay: Cell viability by MTT, 48 h; format: cell-based; conditions: Homo sapiens
From the text: as §4

C4-2 cells = assay: Cell viability by MTT, 48 h; format: cell-based; conditions: C4-2, 48 h
From the text: as §4

LNCaP cells = assay: Cell viability by MTT, 48 h; format: cell-based; conditions: Homo sapiens
From the text: as §4

## c1ccc2c3c4c(nc2c1)c1ccccc1n4CCCN3CCCN1CCOCC1 [Compound 3]
[1]
  ED35: B (B: ≤10 μM)
PDGF-Rβ G-quadruplex
  concentration of ligand bound to G-quadruplex structure: 0.0 µM
MYC G-quadruplex
  concentration of ligand bound to G-quadruplex structure: 1.0 µM
HIF-1α G-quadruplex
  concentration of ligand bound to G-quadruplex structure: 4.0 µM
PDGFA G-quadruplex
  concentration of ligand bound to G-quadruplex structure: 0.5 µM
Bcl-2 G-quadruplex
  concentration of ligand bound to G-quadruplex structure: 3.0 µM
VEGF G-quadruplex
  concentration of ligand bound to G-quadruplex structure: 3.0 µM
Telomeric G-quadruplex
  concentration of ligand bound to G-quadruplex structure: 1.0 µM
hTERT G-quadruplex
  concentration of ligand bound to G-quadruplex structure: 10.5 µM
[2]
  ΔTm: A (A: 0-10° C.)

## Cl.c1ccc2c3c4c(nc2c1)c1ccccc1n4CCCN3CCCN1CCCCCC1 [Compound 6]
[1]
  ED35: A (A: >10 μM)
[2]
  ΔTm: A (A: 0-10° C.)

## c1ccc2c3c4c(nc2c1)c1ccccc1n4CCCN3CCCN1CCCCC1 [Compound 15]
[1]
  ED35: B (B: ≤10 μM)

## OC1CCN(CCCN2CCCn3c4ccccc4c4nc5ccccc5c2c43)CC1 [Compound 7]
[1]
  ED35: B (B: ≤10 μM)
[2]
  ΔTm: A (A: 0-10° C.)

## O=C(NCCCN1CCCn2c3ccccc3c3nc4ccccc4c1c32)C1C[C@@H](O)CN1 (stereo partly drawn) [Compound 11]
[1]
  ED35: B (B: ≤10 μM)
[2]
  ΔTm: B (B: >10° C.)

## c1ccc2c3c4c(nc2c1)c1ccccc1n4CCCN3CCCNc1ncnc2nc[nH]c12 [Compound 12]
[1]
  ED35: B (B: ≤10 μM)
[2]
  ΔTm: A (A: 0-10° C.)

## O=C(NCCN1CCCn2c3ccccc3c3nc4ccccc4c1c32)C1C[C@@H](O)CN1 (stereo partly drawn) [Compound 9]
[1]
  ED35: B (B: ≤10 μM)
[2]
  ΔTm: B (B: >10° C.)

## CN1CCN(CCCN2CCCn3c4ccccc4c4nc5ccccc5c2c43)CC1 [Compound 5]
[1]
  ED35: A (A: >10 μM)
[2]
  ΔTm: A (A: 0-10° C.)

## CN1CCN(C(=O)N2C[C@H](O)CC2C(=O)NCCCN2CCCn3c4ccccc4c4nc5ccccc5c2c43)CC1 (stereo partly drawn) [Compound 13]
[1]
  ED35: B (B: ≤10 μM)
[2]
  ΔTm: A (A: 0-10° C.)

## CN(C)CCN1CCCn2c3ccccc3c3nc4ccccc4c1c32 [GSA1502]
AR mRNA
  AR mRNA: does not affect
AR; LNCaP and C4-2 cells, 24 h, 10 μM
  AR protein expression: does not affect

## CN1CCN(C(=O)NCCN2CCCn3c4ccccc4c4nc5ccccc5c2c43)CC1 [Compound 8]
[1]
  ED35: B (B: ≤10 μM)
[2]
  ΔTm: B (B: >10° C.)

## CN1CCN(C(=O)NCCCN2CCCn3c4ccccc4c4nc5ccccc5c2c43)CC1 [Compound 10]
[1]
  ED35: B (B: ≤10 μM)
PDGF-Rβ G-quadruplex
  concentration of ligand bound to G-quadruplex structure: 8.3 µM
MYC G-quadruplex
  concentration of ligand bound to G-quadruplex structure: 6.8 µM
HIF-1α G-quadruplex
  concentration of ligand bound to G-quadruplex structure: 3.3 µM
PDGFA G-quadruplex
  concentration of ligand bound to G-quadruplex structure: 1.8 µM
Bcl-2 G-quadruplex
  concentration of ligand bound to G-quadruplex structure: 8.3 µM
VEGF G-quadruplex
  concentration of ligand bound to G-quadruplex structure: 2.5 µM
Telomeric G-quadruplex
  concentration of ligand bound to G-quadruplex structure: 2.9 µM
hTERT G-quadruplex
  concentration of ligand bound to G-quadruplex structure: 9.5 µM
[2]
  ΔTm: A (A: 0-10° C.)

## OCCCN1CCCn2c3ccccc3c3nc4ccccc4c1c32 [Compound 4]
[1]
  ED35: B (B: ≤10 μM)
[2]
  ΔTm: A (A: 0-10° C.)

## NCCCN1CCCn2c3ccccc3c3nc4ccccc4c1c32 [Compound 14]
[1]
  ED35: B (B: ≤10 μM)
[2]
  ΔTm: A (A: 0-10° C.)

## OC1CCN(CCN2CCCn3c4ccccc4c4nc5ccccc5c2c43)CC1 [Compound 2]
[1]
  ED35: A (A: >10 μM)
[2]
  ΔTm: A (A: 0-10° C.)

## c1ccc2c3c4c(nc2c1)c1ccccc1n4CCCN3CCN1CCOCC1 [Compound 1]
[1]
  ED35: A (A: >10 μM)
[2]
  ΔTm: A (A: 0-10° C.)

## OC1CCN(CCN2CCCn3c4ccccc4c4nc5ccccc5c2c43)CC1 [GSA0932]
ARv7 splice variant
  expression of ARv7 splice variant: inhibits the expression
AR mRNA
  AR mRNA: significantly decreased
AR mRNA; LNCaP cells, NCL siRNA versus scrambled, 12 hours
  inhibitory activity against AR mRNA expression after NCL knockdown: alleviated
G4-deleted AR reporter
  effect on G4-deleted AR reporter: had no effect
[3]
  luciferase activity of wild type reporter: significantly decreases luciferase activity
[4]
  cytotoxic activity, AR-positive versus non-AR expressing cells: stronger cytotoxic activity against AR-positive tumor cells than non-AR expressing cells
KLK3, also known as PSA
  mRNA expression of AR target gene KLK3 (PSA): suppressed mRNA expression
[5]
  amount of NCL bound to the G4-element of the AR promoter: increases the amount of NCL bound
PC3 cells
  IC50: 4.3 ± 0.16 µM
[6]
  IC50: 5.4 ± 0.05 µM
22Rv1 cells
  IC50: 900 ± 110 nM
VCaP cells
  IC50: 2800 ± 30 nM
C4-2 cells
  IC50: 2000 ± 40 nM
LNCaP cells
  IC50: 1400 ± 260 nM
AR; 22RV1 cells
  concentration of maximal inhibitory activity on AR expression: 3 µM
AR; VCaP cells
  concentration of maximal inhibitory activity on AR expression: 5 µM
